According to patent publication US20230270867A1, “CONJUGATE IN WHICH FL118 DRUG IS LINKED TO ACID-SENSITIVE LINKER, AND IMMUNOCONJUGATE USING SAME” (PINOTBIO, INC., priority 2020, published 2023):

Tests used:
[1] = test system: various cancer cell lines; assay: Cytotoxicity of FL118 in various cancer cell lines; format: cell-based; conditions: 140 cell lines originating from various cancers; against most cancer cells
MDA-MB-468 cells = assay: In vivo drug efficacy, MDA-MB-468 xenograft model (sacituzumab / Example 9); design: species or system mice; conditions: MDA-MB-468 model, Group 2, dose not given

## CCC1(O)C(=O)OCc2c1cc1n(c2=O)Cc2cc3cc4c(cc3nc2-1)OCO4 (stereo in doubt) [FL118, (4S)-4-ethyl-4-hydroxy-8,9-methylenedioxy-1H-pyrano[3′,4′:6,7]indolizino[1,2-b]quinoline-3,14(4H,12H)-dione]
[1]
  IC50: < 100 nM

## sacituzumab: Trop-2 target antibody; control
MDA-MB-468 cells; Day 0
  Tumor volume: 200.20 ± 30.90 mm^3
MDA-MB-468 cells; Day 21
  TGI: 43.6%
  Tumor volume: 433.08±126.82 mm^3
